Results published in patent US20120322685A1, “DEVICE FOR COLLECTING AND ANALYZING MIGRATORY TUMOR CELLS” (priority 2010, published 2012).

What was measured:
[1] = system: MDA-MB-231 derived mammary tumors; assay: in vivo invasion assay, MDA-MB-231 derived mammary tumors; parameters: species or system human tumor xenograft in SCID mice tumor xenograft in SCID mice; conditions: MDA-MB-231 tumors in mammary fat pads of SCID mice; FIG. 1C
Text: Therefore, an in vivo invasion assay was created in which three needles (microneedles ˜100 um in diameter) containing matrigel and various growth factors are placed independently with microscopic precision, using a specially designed micromanipulator guided device, into the primary tumor for chemotaxis-based cell collection in vivo [3]. One needle contains control conditions (usually no ligand or an inhibitor), and the other two are identical. […] Fetal serum was also sufficient but this required signaling by the EGF receptor again implicating the EGF receptor. Furthermore, CSF-1 was also sufficient for cell collection. […]
Mammary tumors derived by injecting the human cell line MDA-MB-231 into a mammary fat pad of mice were used in the in vivo invasion assay. […] The involvement of EGF and CSF1 in carcinoma cell invasion has been analyzed from primary breast tumors derived from the injection of MDA-MB-231 cells into the mammary fat pads of SCID mice. […]

[2] = system: Human lung tumors heterotransplanted into nude mice; assay: in vivo invasion assay, chemotaxis-based cell collection into needles, human lung tumor heterotransplants; conditions: needles containing 50 nM Heregulin; first mouse to mouse transplant
Text: Therefore, an in vivo invasion assay was created in which three needles (microneedles ˜100 um in diameter) containing matrigel and various growth factors are placed independently with microscopic precision, using a specially designed micromanipulator guided device, into the primary tumor for chemotaxis-based cell collection in vivo [3]. One needle contains control conditions (usually no ligand or an inhibitor), and the other two are identical. […] Fetal serum was also sufficient but this required signaling by the EGF receptor again implicating the EGF receptor. Furthermore, CSF-1 was also sufficient for cell collection. […] Migration and collection was directly correlated with macrophage density in the mammary gland, stage of progression to malignancy (only background levels of cells, <200 cells, were collected from normal mammary glands and adenoma stage tumors compared with carcinoma stage tumors, ˜1000 cells) and the presence of CSF1 in the tumor was required for cell collection as shown using mouse models with either decreased (op/op) or increased (tet on CSF-1) CSF-1 expression that regulates macrophage recruitment to the mammary gland and metastasis. […] Furthermore, the motility of tumor cells and intravasation occurs preferentially in association with macrophages. […]

Row | Molecule | CSF1-mediated collection of invasive cells (tumor cell and macrophage invasion) [1] | EGF-mediated collection of invasive cells (tumor cell and macrophage invasion) [1] | fold more cells collected in needles as compared to needles with buffer alone [2] [fold]
1 | COc1cc2ncnc(Nc3ccc(F)c(Cl)c3)c2cc1OCCCN1CCOCC1 [Iressa] | inhibited | inhibited | 
2 | Heregulin [reference compound] |  |  | 2
